Reference: patent US11040981B2, “Pyrrolotriazine compounds and methods of inhibiting TAM kinases” (Syros Pharmaceuticals, Inc., priority 2017, dated 2021)

Columns and labels:
MERTK = biological target: T1, MERTK (Homo sapiens, UniProt Q12866); test: TR-FRET kinase activity assay, MERTK; assay type: biochemical; conditions: for IC50: TR-FRET activity assay, ATP at Km, 60 minutes, read-out: Mer IC50; for FLT3/Mer ratio (FLT3 IC50/Mer IC50): ratio calculated as FLT3 IC50/Mer IC50
T1 sequence (Q12866 21-999): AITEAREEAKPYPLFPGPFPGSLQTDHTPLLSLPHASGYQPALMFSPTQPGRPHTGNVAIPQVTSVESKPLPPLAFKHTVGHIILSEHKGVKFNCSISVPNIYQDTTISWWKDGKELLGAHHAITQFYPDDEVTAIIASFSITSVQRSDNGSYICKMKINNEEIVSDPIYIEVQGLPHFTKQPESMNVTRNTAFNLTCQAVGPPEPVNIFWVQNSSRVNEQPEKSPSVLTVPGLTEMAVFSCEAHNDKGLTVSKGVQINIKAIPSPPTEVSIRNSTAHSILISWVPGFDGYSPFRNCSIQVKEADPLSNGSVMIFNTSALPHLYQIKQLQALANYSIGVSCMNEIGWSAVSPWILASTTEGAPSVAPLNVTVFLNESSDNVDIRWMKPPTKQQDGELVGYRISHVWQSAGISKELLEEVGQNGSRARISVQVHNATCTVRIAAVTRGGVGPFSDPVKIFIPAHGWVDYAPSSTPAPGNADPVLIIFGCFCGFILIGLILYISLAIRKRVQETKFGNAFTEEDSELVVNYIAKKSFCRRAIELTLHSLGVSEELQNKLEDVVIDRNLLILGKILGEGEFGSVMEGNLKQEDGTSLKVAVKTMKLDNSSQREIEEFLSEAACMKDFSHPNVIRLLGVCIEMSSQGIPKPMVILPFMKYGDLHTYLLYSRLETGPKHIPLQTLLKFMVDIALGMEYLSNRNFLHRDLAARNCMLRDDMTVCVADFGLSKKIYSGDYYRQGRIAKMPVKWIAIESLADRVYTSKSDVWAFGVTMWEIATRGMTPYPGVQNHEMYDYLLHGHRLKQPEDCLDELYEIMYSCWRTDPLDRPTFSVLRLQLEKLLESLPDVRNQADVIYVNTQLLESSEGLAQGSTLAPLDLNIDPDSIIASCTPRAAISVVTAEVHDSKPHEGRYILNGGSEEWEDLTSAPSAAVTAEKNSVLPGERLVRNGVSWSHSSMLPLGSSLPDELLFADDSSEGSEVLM
In short: (§1)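 Compounds were tested against each kinase with ATP set at its own Km and a labelled tyrosine peptide substrate. Following one hour at room temperature in buffer containing 10 mM MgCl2 and 1 mM DTT, phosphorylated product was detected by Europium antibody TR-FRET after EDTA quench, and IC50 values were calculated.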

TYRO3 = biological target: T2, TYRO3 (Homo sapiens, UniProt Q06418); test: TR-FRET kinase activity assay, TYRO3; assay type: biochemical; conditions: ATP at Km, 60 minutes
T2 sequence (Q06418 41-890): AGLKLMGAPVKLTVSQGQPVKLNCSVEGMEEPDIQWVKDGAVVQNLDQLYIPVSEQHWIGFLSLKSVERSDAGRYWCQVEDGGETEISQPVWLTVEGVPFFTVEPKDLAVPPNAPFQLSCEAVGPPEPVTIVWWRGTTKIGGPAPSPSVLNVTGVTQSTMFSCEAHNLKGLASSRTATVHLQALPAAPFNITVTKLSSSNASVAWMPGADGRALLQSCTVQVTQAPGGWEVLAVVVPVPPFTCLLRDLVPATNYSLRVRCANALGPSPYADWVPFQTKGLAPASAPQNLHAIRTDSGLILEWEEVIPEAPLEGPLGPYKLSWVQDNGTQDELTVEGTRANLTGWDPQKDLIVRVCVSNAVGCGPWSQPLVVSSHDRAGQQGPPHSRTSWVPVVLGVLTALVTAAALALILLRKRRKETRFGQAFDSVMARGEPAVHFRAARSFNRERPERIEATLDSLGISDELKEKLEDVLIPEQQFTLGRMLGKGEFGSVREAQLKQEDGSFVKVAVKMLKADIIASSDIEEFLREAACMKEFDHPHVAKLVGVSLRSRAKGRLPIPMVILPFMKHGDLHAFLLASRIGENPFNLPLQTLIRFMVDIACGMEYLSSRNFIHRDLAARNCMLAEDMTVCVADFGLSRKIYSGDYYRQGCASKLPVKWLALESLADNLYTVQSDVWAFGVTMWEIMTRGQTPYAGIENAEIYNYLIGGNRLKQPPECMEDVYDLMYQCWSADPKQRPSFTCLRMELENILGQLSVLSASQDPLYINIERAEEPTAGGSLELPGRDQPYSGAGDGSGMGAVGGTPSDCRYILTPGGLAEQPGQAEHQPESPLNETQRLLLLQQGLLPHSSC
In short: as §1

## COC[C@H](C)Nc1ncc2c([C@H]3CC[C@H](C(=O)N4CCN(C)CC4)CC3)cc([C@H]3CC[C@H](O)CC3)n2n1 [Compound 606]
MERTK
  IC50: ≤ 100 nM
  FLT3/Mer ratio (FLT3 IC50/Mer IC50): +++ (“+++” represents a ratio of >100)
TYRO3
  IC50: ≤ 100 nM

## COC[C@H](C)Nc1ncc2c([C@H]3CC[C@@H](C(=O)N4CCN(C)CC4)CC3)cc([C@H]3CC[C@H](O)CC3)n2n1 [Compound 607]
MERTK
  IC50: ≤ 100 nM
  FLT3/Mer ratio (FLT3 IC50/Mer IC50): +++ (“+++” represents a ratio of >100)
TYRO3
  IC50: ≤ 100 nM

## C[C@@H](CC(F)(F)F)Nc1ncc2c(-c3cnn(C(C)(C)C(=O)N4CC5(COC5)C4)c3)cc([C@H]3CC[C@H](O)CC3)n2n1 [Compound 608]
MERTK
  IC50: ≤ 100 nM
  FLT3/Mer ratio (FLT3 IC50/Mer IC50): ++ (“++” represents a ratio of between 10 and 100)
TYRO3
  IC50: ≤ 100 nM

## C[C@@H](CC(F)(F)F)Nc1ncc2c(-c3cnn(C(C)(C)C(=O)C4COC4)c3)cc([C@H]3CC[C@@](C)(O)CC3)n2n1 [Compound 609]
MERTK
  IC50: ≤ 100 nM
  FLT3/Mer ratio (FLT3 IC50/Mer IC50): ++ (“++” represents a ratio of between 10 and 100)
TYRO3
  IC50: ≤ 100 nM

## C[C@@H](CC(F)(F)F)Nc1ncc2c(-c3cnn(C(C)(C)C(=O)C4COC4)c3)cc([C@H]3CC[C@](C)(O)CC3)n2n1 [Compound 610]
MERTK
  IC50: ≤ 100 nM
  FLT3/Mer ratio (FLT3 IC50/Mer IC50): ++ (“++” represents a ratio of between 10 and 100)
TYRO3
  IC50: ≤ 100 nM

## COCC(C)Nc1ncc2c(-c3ccc(C(C)(C)c4nnc(C)o4)s3)cc(C3CCC(O)CC3)n2n1 (stereo not drawn) [Compound 611]
MERTK
  IC50: ≤ 100 nM
  FLT3/Mer ratio (FLT3 IC50/Mer IC50): +++ (“+++” represents a ratio of >100)
TYRO3
  IC50: ≤ 100 nM

## COC[C@H](C)Nc1ncc2c(-c3cnn(C(C)(C)C(=O)N4CCCC4)c3)cc([C@H]3CC[C@H](O)CC3)n2n1 [Compound 612]
MERTK
  IC50: ≤ 100 nM
  FLT3/Mer ratio (FLT3 IC50/Mer IC50): +++ (“+++” represents a ratio of >100)
TYRO3
  IC50: ≤ 100 nM

## C[C@@H](COC(F)F)Nc1ncc2c(-c3cnn(C(C)(C)C(=O)N4CC5(COC5)C4)c3)cc([C@H]3CC[C@H](O)CC3)n2n1 [Compound 613]
MERTK
  IC50: ≤ 100 nM
  FLT3/Mer ratio (FLT3 IC50/Mer IC50): +++ (“+++” represents a ratio of >100)
TYRO3
  IC50: ≤ 100 nM

## COC[C@H](C)Nc1ncc2c(-c3cnn(C4COC4)c3)cc([C@H]3CC[C@H](O)C(F)(F)C3)n2n1 [Compound 614]
MERTK
  IC50: ≤ 100 nM
  FLT3/Mer ratio (FLT3 IC50/Mer IC50): +++ (“+++” represents a ratio of >100)
TYRO3
  IC50: ≤ 100 nM

## CCC1(O)CCC(c2cc(-c3cnn(C4COC4)c3)c3cnc(NC(C)COC)nn23)CC1 (stereo not drawn) [Compound 615]
MERTK
  IC50: ≤ 100 nM
  FLT3/Mer ratio (FLT3 IC50/Mer IC50): +++ (“+++” represents a ratio of >100)
TYRO3
  IC50: ≤ 100 nM

## CC[C@]1(O)CC[C@@H](c2cc(-c3cnn(C4COC4)c3)c3cnc(N[C@@H](C)COC)nn32)CC1 [Compound 616]
MERTK
  IC50: ≤ 100 nM
  FLT3/Mer ratio (FLT3 IC50/Mer IC50): +++ (“+++” represents a ratio of >100)
TYRO3
  IC50: ≤ 100 nM

## COC[C@H](C)Nc1ncc2c(-c3cnn(C4COC4)c3)cc([C@H]3CC[C@](O)(C(C)C)CC3)n2n1 [Compound 617]
MERTK
  IC50: ≤ 100 nM
  FLT3/Mer ratio (FLT3 IC50/Mer IC50): +++ (“+++” represents a ratio of >100)
TYRO3
  IC50: ≤ 100 nM

## COC[C@H](C)Nc1ncc2c(-c3cnn(C4COC4)c3)cc([C@H]3CC[C@@](O)(C(C)C)CC3)n2n1 [Compound 618]
MERTK
  IC50: ≤ 100 nM
  FLT3/Mer ratio (FLT3 IC50/Mer IC50): +++ (“+++” represents a ratio of >100)
TYRO3
  IC50: ≤ 100 nM
